Assay results published in patent publication US8765747B2, “Fused 2-aminothiazole compounds” (Dana-Farber Cancer Institute, Inc., priority 2009, dated 2014).

What was measured:
Assay type in all cases: cell-based, murine
Ba/F3-PDGFRα-T674M = assay: Cell cycle analysis; conditions: 24 hours of treatment
Description: (§1) All cell lines were cultured with 5% CO2 at 37° C. in RPMI (Mediatech, Inc., Herndon, Va.) with 10% fetal calf serum (FCS) and supplemented with 1% L-glutamine. Parental Ba/F3 cells were similarly cultured with 15% WEHI-conditioned medium as a source of IL-3. Transfected cell lines were cultured in media supplemented with 1 mg/ml G418.
(§2) Cell cycle analysis was performed using approximately 500,000 cells, which were centrifuged at 1500 rpm for 5 min, washed in PBS, and the pellet re-suspended in 500 μl of propidium iodide solution (50 μg/ml propidium iodide, 0.1% NP-40, 0.1% sodium citrate). The mixture was stored in the dark at 4° C. for a minimum of 15 min, and then analyzed by flow cytometry. Apoptosis of drug-treated cells was measured using the Annexin-V-Fluos Staining Kit (Boehringer Mannheim, Indianapolis).

Ba/F3-kit-T6701 = assay: Cell cycle analysis; conditions: 24 hours of treatment
Description: as §1, §2

Ba/F3-PDGFRα-T674I = assay: Cell cycle analysis; conditions: 24 hours of treatment
Description: as §1, §2

Ba/F3-delWK + V654A = assay: Relative IC50 in kit-expressing cell line; conditions: Mus musculus, 2.5-3 days, read-out: Relative IC50 range
Description: (§3) All compounds were initially dissolved in DMSO to make 10 mM stock solutions, and then were serially diluted to obtain final concentrations for in vitro experiments.
as §1

Ba/F3-insAY = assay: Relative IC50 in kit-expressing cell line; conditions: Mus musculus, 2.5-3 days, read-out: Relative IC50 range
Description: as §3, §1

Ba/F3-V6559D = assay: Relative IC50 in kit-expressing cell line; conditions: Mus musculus, 2.5-3 days, read-out: Relative IC50 range
Description: as §3, §1

Ba/F3-delWK + Y823D = assay: Relative IC50 in kit-expressing cell line; conditions: Mus musculus, 2.5-3 days, read-out: Relative IC50 range
Description: as §3, §1

Ba/F3-delWK + T6701 = assay: Relative IC50 in kit-expressing cell line; conditions: Mus musculus, 2.5-3 days, read-out: Relative IC50 range
Description: as §3, §1

Ba/F3-delWK = assay: Relative IC50 in kit-expressing cell line; conditions: Mus musculus, 2.5-3 days, read-out: Relative IC50 range
Description: as §3, §1

Ba/F3-insAY + T6701 = assay: Relative IC50 in kit-expressing cell line; conditions: Mus musculus, 2.5-3 days, read-out: Relative IC50 range
Description: as §3, §1

Ba/F3-insAY + V654A = assay: Relative IC50 in kit-expressing cell line; conditions: Mus musculus, 2.5-3 days, read-out: Relative IC50 range
Description: as §3, §1

Ba/F3-T6701 = assay: Relative IC50 in kit-expressing cell line; conditions: Mus musculus, 2.5-3 days, read-out: Relative IC50 range
Description: as §3, §1

32D-BCR-Abl = assay: Cell cycle analysis; conditions: 24 hours of treatment
From the text: (§4) Ba/F3.p210 cells were obtained by transfecting the IL-3-dependent marine hematopoietic Ba/F3 cell line with a pGD vector containing p210BCR-ABL (B2A2) cDNA (Daley and Baltimore, 1988; Sattler et al., 1996; Okuda et al., 1996). Murine hematopoietic 32D cells were transduced with retrovirus to express p210 Bcr-ABL (32D.p210 cells) (Matulonis et al., 1993); the 32D-T315I cell line was transfected by electroporation with the imatinib resistant BCR-ABL construct (pCI-neo Mammalian Expression Vector; Promega (#E1841) harboring the point mutation T315I (Weisberg et al., 2005). Ba/F3 cells were stably transfected by electroporation with imatinib-resistant BCR-ABL constructs (pCI-neo Mammalian Expression Vector; Promega (#E1841) harboring the point mutations T315I, F317L, F486S, and M351T; transfectants were selected for neomycin resistance and IL-3-independent growth (Weisberg et al., 2005). Ba/F3 cells were stably transfected by electroporation with BCR-ABL point mutants identified in a random mutagenesis screen for BCR-ABL point mutants conferring resistance to nilotinib: Q252H, E292K, Y253C, Y253H, E255K, and V289L (Ray et al., 2007). Ba/F3 cells were made to express Tel-PDGFRβ as described by Golub et al., 1994, and Carroll et al., 1996. Constructs of D842V-PDGFRα and V561D-PDGFRα cDNA cloned into pcDNA3.1 were stably transfected into Ba/F3 cells by electroporation, and cells were selected for neomycin resistance and IL3-independent growth as described by Weisberg et al., 2006.
as §1, §2

Ba/F3-Y253C = assay: Relative IC50 in BCR-Abl-expressing cell line; conditions: Mus musculus, 2.5-3 days, read-out: Relative IC50 range
Description: as §3
as §4, with “Ba/F3 cells were made to express Tel-PDGFRβ as described by Golub et al., 1994, and Carroll et al., 1996. Constructs of D842V-PDGFRα and V561D-PDGFRα cDNA cloned into pcDNA3.1 were stably transfected into Ba/F3 cells by electroporation, and cells were selected for neomycin resistance and IL3-independent growth as described by Weisberg et al., 2006.” left out

In the case of `CCN1CCN(Cc2ccc(NC(=O)c3cccc(-c4ccc5nc(NC(=O)C6CC6)sc5n4)c3)cc2C(F)(F)F)CC1` [Compound 2], the “% G0G1” value (Ba/F3-PDGFRα-T674M; 0.01 μM) is reported as 40.81%, the “% G2M” value (Ba/F3-PDGFRα-T674M; 0.01 μM) is reported as 7.41% and the “% S” value (Ba/F3-PDGFRα-T674M; 0.01 μM) is reported as 51.78%. For the same molecule, the “% G0G1” value (Ba/F3-PDGFRα-T674M; 0.1 μM) was 72.37%, the “% G2M” value (Ba/F3-PDGFRα-T674M; 0.1 μM) was 3.62% and the “% S” value (Ba/F3-PDGFRα-T674M; 0.1 μM) was 24.01%. For the same molecule, the “% G0G1” value (Ba/F3-PDGFRα-T674M; 1.0 μM) was 79.92%, the “% G2M” value (Ba/F3-PDGFRα-T674M; 1.0 μM) was 2.46% and the “% S” value (Ba/F3-PDGFRα-T674M; 1.0 μM) was 17.61%. The “% G0G1” value (Ba/F3-kit-T6701; 0.01 μM) was 35.2%, the “% G2M” value (Ba/F3-kit-T6701; 0.01 μM) was 14.62% and the “% S” value (Ba/F3-kit-T6701; 0.01 μM) was 50.19%. The “% G0G1” value (Ba/F3-kit-T6701; 0.1 μM) was 29.01%, the “% G2M” value (Ba/F3-kit-T6701; 0.1 μM) was 16.54% and the “% S” value (Ba/F3-kit-T6701; 0.1 μM) was 54.45%. For the same molecule, the “% G0G1” value (Ba/F3-kit-T6701; 1.0 μM) was 52.57%, the “% G2M” value (Ba/F3-kit-T6701; 1.0 μM) was 10.05% and the “% S” value (Ba/F3-kit-T6701; 1.0 μM) was 37.38%. The “% G0G1” value (Ba/F3-PDGFRα-T674I; 0.01 μM) was 57.30%, the “% G2M” value (Ba/F3-PDGFRα-T674I; 0.01 μM) was 5.98% and the “% S” value (Ba/F3-PDGFRα-T674I; 0.01 μM) was 36.72%. For the same molecule, the “% G0G1” value (Ba/F3-PDGFRα-T674I; 0.1 μM) was 64.90%, the “% G2M” value (Ba/F3-PDGFRα-T674I; 0.1 μM) was 5.82% and the “% S” value (Ba/F3-PDGFRα-T674I; 0.1 μM) was 29.28%. The “% G0G1” value (Ba/F3-PDGFRα-T674I; 1.0 μM) was 77.55%, the “% G2M” value (Ba/F3-PDGFRα-T674I; 1.0 μM) was 7.16% and the “% S” value (Ba/F3-PDGFRα-T674I; 1.0 μM) was 15.29%. For the same molecule, the IC50 (Ba/F3-delWK + V654A) was 0.025 to 0.05 µM, the IC50 (Ba/F3-insAY) was over 1 µM and the IC50 (Ba/F3-V6559D) was 0.25 to 0.5 µM. It also gave an IC50 (Ba/F3-delWK + Y823D) of 0.5 to 1 µM, an IC50 (Ba/F3-delWK + T6701) of 0.025 to 0.05 µM and an IC50 (Ba/F3-delWK) of 0.0125 to 0.025 µM. For the same molecule, the IC50 (Ba/F3-insAY + T6701) was at least 1 µM, the IC50 (Ba/F3-insAY + V654A) was over 1 µM and the IC50 (Ba/F3-T6701) was 0.25 µM. The “% G0G1” value (32D-BCR-Abl; 0.01 μM) was 42.62%, the “% G2M” value (32D-BCR-Abl; 0.01 μM) was 9.56% and the “% S” value (32D-BCR-Abl; 0.01 μM) was 47.82%. The “% G0G1” value (32D-BCR-Abl; 0.1 μM) was 76.52%, the “% G2M” value (32D-BCR-Abl; 0.1 μM) was 3.78% and the “% S” value (32D-BCR-Abl; 0.1 μM) was 19.71%. The “% G0G1” value (32D-BCR-Abl; 1.0 μM) was 77.44%, the “% G2M” value (32D-BCR-Abl; 1.0 μM) was 9.07% and the “% S” value (32D-BCR-Abl; 1.0 μM) was 13.49%. It also gave an IC50 (Ba/F3-Y253C) of under 0.1 µM.
